Results taken from ChEMBL document CHEMBL3882736, “Modulation microtubules diseases; antiproliferative agents; antiinflamamtory agents” (2011).

Experiments:
[1] = Cytotoxicity against human DU145 cells assessed as growth inhibition at 20 uM after 40 hrs by MTT assay relative to control; type: functional; settings: DU-145, 40 h, read-out: GI
In short: (§1)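 In 96-well plates, 10 µL compound (10× final) from screening plates prepared at 20 µM received 90 µL per well of late-log-phase human tumour cells in their own medium with 10% FBS. The plates stood 40 hr at 37° C. with 5% CO2 before a 6-hour MTT step, overnight SDS/HCl lysis and reading at 590 nm. Values give growth inhibition relative to control.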

[2] = target: T1, Tyrosine-protein kinase JAK3 (Homo sapiens) (UniProt P52333); experiment: Inhibition of TEL-fused JAK3 kinase domain (2520 to 3469 nucleotide) (unknown origin) expressed in mouse BaF3 cells assessed as decrease in cell growth at 20 uM after 40 hrs by MTT assay relative to control; type: cell-based
T1 sequence (whole entry): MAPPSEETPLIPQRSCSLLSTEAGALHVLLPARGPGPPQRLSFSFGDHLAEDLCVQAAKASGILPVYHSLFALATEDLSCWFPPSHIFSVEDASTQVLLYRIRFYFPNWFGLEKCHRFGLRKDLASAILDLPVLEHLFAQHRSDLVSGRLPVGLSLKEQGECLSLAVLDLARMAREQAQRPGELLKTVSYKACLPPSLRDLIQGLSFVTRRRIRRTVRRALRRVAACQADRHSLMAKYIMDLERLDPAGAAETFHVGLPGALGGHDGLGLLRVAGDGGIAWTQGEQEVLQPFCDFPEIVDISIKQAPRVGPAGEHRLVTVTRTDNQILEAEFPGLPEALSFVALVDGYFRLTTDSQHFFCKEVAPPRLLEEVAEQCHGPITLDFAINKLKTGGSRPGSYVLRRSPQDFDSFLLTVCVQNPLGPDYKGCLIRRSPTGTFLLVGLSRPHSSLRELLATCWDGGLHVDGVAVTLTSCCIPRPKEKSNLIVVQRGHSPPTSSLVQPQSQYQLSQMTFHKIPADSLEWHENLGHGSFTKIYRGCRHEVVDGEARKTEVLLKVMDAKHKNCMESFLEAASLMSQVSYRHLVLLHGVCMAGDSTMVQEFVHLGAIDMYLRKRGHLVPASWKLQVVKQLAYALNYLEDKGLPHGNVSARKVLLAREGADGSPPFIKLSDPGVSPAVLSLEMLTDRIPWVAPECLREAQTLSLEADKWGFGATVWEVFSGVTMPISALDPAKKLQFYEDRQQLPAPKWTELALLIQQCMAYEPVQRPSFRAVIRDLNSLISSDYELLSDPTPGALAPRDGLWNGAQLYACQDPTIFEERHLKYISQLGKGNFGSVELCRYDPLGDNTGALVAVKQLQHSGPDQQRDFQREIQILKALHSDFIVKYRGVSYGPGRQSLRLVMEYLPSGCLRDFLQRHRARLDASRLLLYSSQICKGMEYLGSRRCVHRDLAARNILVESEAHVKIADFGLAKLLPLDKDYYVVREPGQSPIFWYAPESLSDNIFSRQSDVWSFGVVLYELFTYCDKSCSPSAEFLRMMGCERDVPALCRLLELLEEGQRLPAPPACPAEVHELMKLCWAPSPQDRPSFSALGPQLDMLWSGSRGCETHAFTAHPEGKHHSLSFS

[3] = target: Tyrosine-protein kinase JAK2 (Homo sapiens) (UniProt O60674); experiment: Inhibition of TEL-fused JAK2 kinase domain (2994 to 3914 nucleotide) (unknown origin) expressed in mouse BaF3 cells assessed as decrease in cell growth at 20 uM after 40 hrs by MTT assay relative to control; type: cell-based
Sequence of Tyrosine-protein kinase JAK2 (Homo sapiens) (O60674 whole entry, the tested form may be a part): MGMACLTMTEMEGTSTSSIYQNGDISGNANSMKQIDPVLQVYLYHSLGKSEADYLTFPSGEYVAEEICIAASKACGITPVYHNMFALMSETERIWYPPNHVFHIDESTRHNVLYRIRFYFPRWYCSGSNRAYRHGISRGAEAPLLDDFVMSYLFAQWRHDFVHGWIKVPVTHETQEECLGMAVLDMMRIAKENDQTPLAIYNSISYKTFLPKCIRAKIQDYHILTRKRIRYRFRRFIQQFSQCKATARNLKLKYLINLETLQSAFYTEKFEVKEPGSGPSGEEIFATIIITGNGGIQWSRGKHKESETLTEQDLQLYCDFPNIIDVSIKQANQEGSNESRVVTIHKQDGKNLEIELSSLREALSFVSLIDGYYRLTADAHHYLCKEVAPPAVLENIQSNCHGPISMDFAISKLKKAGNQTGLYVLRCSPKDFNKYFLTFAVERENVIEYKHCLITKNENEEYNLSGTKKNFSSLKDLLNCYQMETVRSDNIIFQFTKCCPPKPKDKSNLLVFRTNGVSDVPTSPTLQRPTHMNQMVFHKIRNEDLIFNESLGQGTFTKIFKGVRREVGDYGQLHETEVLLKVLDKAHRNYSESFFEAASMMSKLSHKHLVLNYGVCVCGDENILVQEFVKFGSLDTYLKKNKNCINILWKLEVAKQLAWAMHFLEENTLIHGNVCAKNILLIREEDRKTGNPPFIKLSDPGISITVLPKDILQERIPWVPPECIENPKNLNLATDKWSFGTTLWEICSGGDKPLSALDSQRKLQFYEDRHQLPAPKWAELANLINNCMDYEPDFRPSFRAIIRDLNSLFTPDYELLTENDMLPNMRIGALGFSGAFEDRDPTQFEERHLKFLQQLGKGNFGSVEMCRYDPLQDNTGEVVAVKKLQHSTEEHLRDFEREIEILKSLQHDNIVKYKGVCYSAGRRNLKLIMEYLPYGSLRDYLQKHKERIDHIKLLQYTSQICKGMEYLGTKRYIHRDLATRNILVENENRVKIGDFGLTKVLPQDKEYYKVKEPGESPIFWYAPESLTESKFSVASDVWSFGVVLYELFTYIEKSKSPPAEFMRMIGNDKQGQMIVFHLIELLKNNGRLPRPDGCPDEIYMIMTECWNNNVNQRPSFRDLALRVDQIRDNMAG

[4] = target: Tubulin (Homo sapiens) (UniProt P68371+Q9H4B7+P0DPH7+P68366+Q13509+Q71U36+P04350+Q3ZCM7+P07437+P68363+Q9BQE3+Q6PEY2+Q13885+Q9BVA1+Q9BUF5); experiment: Inhibition of tubulin (unknown origin) polymerization at 50 uM by turbidometric method relative to control; type: protein-complex assay
In short: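 Values are percent inhibition of microtubule polymerisation relative to control. Microtubule protein of unstated origin was incubated with compound at 0° C., then polymerisation was started in cuvettes with 1 mM GTP and heating to 37° C. Absorbance at 340 nm was recorded over time.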

[5] = Cytotoxicity against human K562 cells assessed as growth inhibition at 20 uM after 40 hrs by MTT assay relative to control; type: functional; settings: K562, 40 h, read-out: GI; in short: as §1
[6] = Cytotoxicity against human PC3 cells assessed as growth inhibition at 20 uM after 40 hrs by MTT assay relative to control; type: functional; settings: PC-3, 40 h, read-out: GI; in short: as §1

inhibition [2] [%]	inhibition [3] [%]	inhibition [4] [%]	SMILES	inhibition of growth at 20 µM [1] [%]	inhibition of growth at 20 µM [5] [%]	inhibition of growth at 20 µM [6] [%]
> 50	> 50	> 50	COc1cc(-c2cncc(NC(C)c3cccc(NC(=O)c4ccncc4)c3)n2)ccc1O (centres undefined)	> 50		
> 50	> 50	> 50	CCC[C@H](Nc1cncc(-c2ccc(NC(=O)NC)c(OC)c2)n1)c1ccccn1	> 50	> 50	> 50
		> 50	CCCC(Nc1cncc(-c2ccc(OCCCCN(CC)CC)c(OC)c2)n1)c1ccccc1 (centres undefined)			> 50
		> 50	CCCC(Nc1cncc(-c2ccc(OCCCCN3CCCCC3)c(OC)c2)n1)c1ccccc1 (centres undefined)			> 50
		> 50	CCNC(=O)Nc1ccc(-c2cncc(N[C@@H](COC)c3ccccc3)n2)cc1OC			> 50
		> 50	CCC[C@H](Nc1cncc(-c2ccc(NC(=O)NCC)c(OC)c2)n1)c1cccnc1			> 50
		> 50	CCCC(Nc1cncc(-c2ccc(OCCCN(CC)CC)c(OC)c2)n1)c1ccccc1 (centres undefined)			> 50
		> 50	COc1cc(-c2cc(N[C@@H](C)c3ccccc3)ncn2)ccc1O			> 50
		> 50	CCNC(=O)Nc1ccc(-c2cncc(N[C@@H](COCC)c3ccccc3)n2)cc1OC			> 50
		> 50	CCCC(Nc1cncc(-c2ccc(OCCCCO)c(OC)c2)n1)c1ccccc1 (centres undefined)			> 50
		> 50	CCCC(Nc1cncc(-c2ccc(OCCCn3ccnc3)c(OC)c2)n1)c1ccccc1 (centres undefined)			> 50
		> 50	CCCC(Nc1nnc(C)c(-c2ccc(O)c(OC)c2)n1)c1ccccc1 (centres undefined)			> 50
		> 50	CCC[C@H](Nc1nc(-c2ccc(NC(=O)NCC)c(OC)c2)ncc1C)c1cccnc1 [LEXIBULIN]			> 50
		> 50	CCCC(Nc1cncc(-c2cc(C)c(O)c(C)c2)c1)c1ccccc1 (centres undefined)			> 50
